{"source": "patent US10292979B2", "about": "“Methods of treating cancer patients with farnesyltransferase inhibitors” (Kura Oncology, Inc., priority 2015, dated 2019)", "key": {"[1]": {"test_system": "tumor in nude mice", "settings": "cited from earlier work"}, "[2]": {"test_system": "AML patients", "test": "Clinical outcome of AML patients treated with tipifarnib versus NK cell biomarker expression in bone marrow (GSE8970/CTEP-20, GSE5122)", "format": "in vivo, human", "settings": "for Exp(b), Cox proportional hazards regression: AML patients treated with tipifarnib", "method": "The current study used microarray data generated from global gene expression assay of bone marrow samples collected in two clinical studies investigating the efficacy and safety of FTI tipifarnib. One clinical study was conducted in adult patients aged 65 years or older with previously untreated AML, and the other conducted in relapsed and refractory AML. The clinical results for these studies were previously published (Lancet et al., Blood 109:1387-1394 (2007); Harousseau et al., Blood 9:9 (2007); Raponi et al., Clin. Cancer Res. 13:2254-2260 (2007)), and the gene profiling data were publically available in NCBI's Gene Expression Omnibus (GEO, http://www.ncbi.nlm.nih.gov/geo) and are assessable through GEO Series accession numbers GSE8970 and GSE5122.\nAs described in Raponi et al., Blood 111:2589-96 (2008), BM samples were collected from consenting patients before treatment with tipifarnib, and mononuclear cells were processed on site. Total RNA was extracted from cell samples, quality controlled, and further processed for microarray analysis. DNA was isolated from the same sample. Samples were assayed for global gene expression, and/or quantitative polymerase chain reaction (QPCR) of specific genes).\nBriefly, CR was defined as BM showing less than 5% myeloblasts with normal maturation of all cell lines, absolute neutrophil count (ANC) of at least 10^9/L (1000/μL), and a platelet count of 100×10^9/L (100 000/μL). PR was defined as the presence of recovery of ANC and platelets to the above stated levels, but with 5% to 19% BM blasts, and a greater than 50% decrease in BM blast percentage from baseline. HI was defined as the same as PR, except with recovery of ANC to 0.5 to 1×10^9/L (500 to 1000/μL) and platelet count to 20 to 100×10^9/L (20 000 to 100 000/μL). Progressive disease (PD) was defined as any of the following: more than 50% increase in BM blast percentage from baseline (more than 5% blasts if baseline is less than 5%, more than 10% blasts if baseline is 5% to 10%, and more than 20% blasts if baseline 10% to 20%); greater than 50% increase in circulating blasts; new appearance of circulating blasts on at least 2 consecutive occasions; or development of extramedullary leukemia. Stable disease (SD) was defined as any response not meeting CR, PR, HI, or PD criteria.\nKaplan Meier curves were used to investigate the relationship between biomarker values and clinical benefit. The identification of multiple NK cell related genes, the long duration of response observed in some tipifarnib patients, and the role of RAS mediated signal transduction in NK cells support that the responsiveness of AML patients to tipifarnib treatment could be resulted from bone marrow infiltrates of immune cells."}, "[3]": {"test_system": "previously untreated elderly or unfit AML patients", "test": "CTEP-20 phase 2 trial of tipifarnib, outcome by N-RAS gene status", "format": "in vivo, human", "settings": "for PFS: FIG. 8; for ORR (response rate): FIG. 9", "method": "CTEP-20 was a phase 2 clinical trial of tipifarnib in previously untreated elderly or unfit AML patients. (Raponi et al., Blood 111:2589-96 (2008)).\nN-RAS gene status was determined for 32 patients. […] Accordingly, AML patients can be selected based on mutation status of RAS gene for tipifarnib treatment in order to increase the responsiveness to the treatment."}, "[4]": {"test_system": "relapsed/refractory head-and-neck carcinoma with HRAS mutations", "test": "Phase 2 trial of tipifarnib in advanced tumors with HRAS mutation, cohort 2", "format": "in vivo, human", "from_the_text": "(§1) A Phase 2 clinical trial was initiated to use tipifarnib in the treatment of advanced tumors with a known HRAS mutation. The clinical trial design includes enrolling 2 cohorts of 18 patients each. Cohort 1 enrolls subjects with malignant thyroid tumors with HRAS mutations, independent of thyroid histology. Cohort 2 enrolls any subject with a non-hematological HRAS mutant tumor other than thyroid cancer who meets eligibility criteria.\n(§2) This clinical trial was designed to include two stages, with the first stage including 11 evaluable patients, and the second stage including 7 additional evaluable patients, and a cohort would not proceed to the second stage if one or no objective response is observed in a cohort in the first stage. The clinical trial is considered positive if at least 4 responses are observed in a cohort out of 18 subjects. The primary endpoint is objective response rate, and tumor response assessments are conducted according to the Response Evaluation Criteria in Solid Tumors version 1.1 criteria (confirmation of response is required).\n(§3) According to the protocol, tipifarnib is administered to enrolled patients at a starting dose of 900 mg, orally with food, twice a day (b.i.d.) for 7 days in alternating weeks (Days 1-7 and 15-21) in 28 day cycles. At the discretion of the investigator, the dose of tipifarnib can be increased to 1200 mg b.i.d. if the subject has not experienced dose limiting toxicities at the 900 mg dose level. Subjects who develop serious adverse events (SAE) or ≥grade 2 treatment-emergent adverse events (TEAE) that are deemed related to tipifarnib and lasting ≥14 days will not undergo dose escalation. Stepwise 300 mg dose reductions to control treatment-related, treatment-emergent toxicities are also allowed.\n(§4) Four (4) evaluable patients were enrolled in the first cohort (patients with malignant thyroid tumors with HRAS mutations) and eleven (11) evaluable patients were enrolled in the second cohort (patients with non-hematologic malignancies other than thyroid cancer with HRAS mutations). In the second cohort, three (3) of those patients have relapsed/refractory head-and-neck carcinoma and two (2) of those three (3) experienced confirmed objective partial responses (PR) and a third patient experienced disease stabilization beyond six months (>8 months). All three head and neck carcinoma patients are HPV negative. All head and neck patients remain on study. […] In addition, five (5) patients enrolled patients have salivary gland cancers with HRAS mutations, and three (3) of them experienced disease stabilization beyond six months (>7, 9 and >11 months). Cohort 2 was proceeded into the second stage of the trial for enrolment of additional seven patients per the trial protocol."}, "[5]": {"test_system": "salivary gland cancers with HRAS mutations", "test": "Phase 2 trial of tipifarnib in advanced tumors with HRAS mutation, cohort 2", "format": "in vivo, human", "from_the_text": "as §1, §2, §3, §4"}, "[6]": {"settings": "34 previously untreated poor-risk and elderly AML patients"}, "[7]": {"settings": "AML patients with 2DS2/2DL2 ratio at the highest (4th) quartile"}, "[8]": {"settings": "AML patients with wild type N-RAS"}}, "note": "Where “and” joins values, the source holds several entries; their conditions need not be identical. Equal values may be shown once.", "data": [{"smiles": "CC[C@H](C)[C@@H](CO[C@@H](Cc1ccccc1)C(=O)N[C@@H](CCS(C)(=O)=O)C(=O)O)NC[C@@H](N)CS", "note": "[L-739749, 2(S)-[2(S)-[2(R)-amino-3-mercapto]propylamino-3(S)-methyl]-pentyloxy-3-phenylpropionyl-methionine sulfone]", "values": [{"measurement": "antitumor activity", "setting": "[1]", "value": "potent antitumor activity"}, {"measurement": "toxicity", "setting": "[1]", "value": "without system toxicity"}]}, {"smiles": "Cn1cncc1[C@@](N)(c1ccc(Cl)cc1)c1ccc2c(c1)c(-c1cccc(Cl)c1)cc(=O)n2C", "note": "[Tipifarnib, (B)-6-[amino(4-chlorophenyl)(1-methyl-1H-imidazol-5-yl)methyl]-4-(3-ch-lorophenyl)-1-methyl-2(1H)-quinolinone]", "values": [{"measurement": "KIR2DS2 High 4th Quartile (Upper) Median Survival", "setting": "[2]; [6]", "value": 564, "unit": "days"}, {"measurement": "KIR2DS2 Low 1st-3rd Quartile Median Survival", "setting": "[2]; [6]", "value": 153, "unit": "days"}, {"measurement": "Median Overall Survival", "setting": "[2]; 34 previously untreated poor-risk and elderly AML patients, all", "value": 233, "unit": "days"}, {"measurement": "median OS", "setting": "[2]; [7]", "value": 750, "unit": "days"}, {"measurement": "median PFS", "setting": "[2]; [7]", "value": 431, "unit": "days"}, {"measurement": "Exp(b), Cox proportional hazards regression", "setting": "[2]; FIG. 2A: PFS versus KIR2DS2/KIR2DL2 expression ratio", "value": 0.0006}, {"measurement": "Exp(b), Cox proportional hazards regression", "setting": "[2]; FIG. 2B: OS versus 2DS2/2DL2 ratio", "value": 0.0048}, {"measurement": "Exp(b), Cox proportional hazards regression", "setting": "[2]; FIG. 4A: PFS versus 2DS5/2DL5A ratio", "value": 0.0294}, {"measurement": "Exp(b), Cox proportional hazards regression", "setting": "[2]; FIG. 6A: GZMM/OS", "value": 0.5688}, {"measurement": "Exp(b), Cox proportional hazards regression", "setting": "[2]; FIG. 6A: GZMM/PFS", "value": 0.5568}, {"measurement": "1-4th Q Median (survival)", "setting": "[2]; GSE8970 (CTEP-20), Front Line Elderly AML, 2DS2/2DL2 ratio 1st-4th quintile", "value": 179, "unit": "days"}, {"measurement": "HR", "setting": "[2]; GSE8970 (CTEP-20), Front Line Elderly AML, 2DS2/2DL2 ratio 5th Q versus rest", "value": 0.21}, {"measurement": "5th Q Median (survival)", "setting": "[2]; GSE8970 (CTEP-20), Front Line Elderly AML, 2DS2/2DL2 ratio highest quintile", "value": 754, "unit": "days"}, {"measurement": "all Median (survival)", "setting": "[2]; GSE8970 (CTEP-20), Front Line Elderly AML, all patients", "value": 233, "unit": "days"}, {"measurement": "Hazards Ratio", "setting": "[2]; KIR2DS2 high versus low, 34 AML patients", "value": 0.303}, {"measurement": "PFS", "setting": "[3]; AML patients with mutant N-RAS", "value": 65, "unit": "days"}, {"measurement": "ORR (response rate)", "setting": "[3]; AML patients with mutant N-RAS", "value": 27, "unit": "%"}, {"measurement": "PFS", "setting": "[3]; [8]", "value": 157, "unit": "days"}, {"measurement": "ORR (response rate)", "setting": "[3]; [8]", "value": 43, "unit": "%"}, {"measurement": "number of patients with confirmed objective partial responses (PR)", "setting": "[4]; of 3 HPV negative relapsed/refractory head-and-neck carcinoma patients, 900 mg b.i.d. days 1-7 and 15-21 of 28 day cycles", "value": 2}, {"measurement": "duration of disease stabilization", "setting": "[4]; third head-and-neck carcinoma patient", "value": "> 8", "unit": "months"}, {"measurement": "number of patients with disease stabilization beyond six months", "setting": "[5]; of 5 patients with salivary gland cancers with HRAS mutations", "value": 3}, {"measurement": "duration of disease stabilization", "setting": "[5]; the three individual salivary gland cancer patients with stabilization", "value": "> 7 months and 9 months and > 11 months"}]}]}
